According to the supplement of paper PMC10627819:

Tests used:
B. subtilis 168 [1] = assay: fitness (endpoint OD595 vs no drug) (fraction); higher = more growth
Summary of the method: (§1)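 With the first reading as background, OD595 was measured every 30 min for 14 h in 384-well plates kept at 37 °C and inoculated at OD595 0.01. TSB, LB Lennox or CY was the medium. Fitness is the optical density at the transition into stationary phase divided by the robust mean of no-drug control wells, with a cap of 1.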

S. aureus DSM 20231 [2] = assay: as above
Summary of the method: as §1

B. subtilis 168 [3] = assay: Bliss interaction score (quartile over a dose matrix) (fitness difference); higher = more antagonism (negative = synergy)
Summary of the method: (§2)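 Each plate was normalised to the robust mean of its own no-drug wells, using OD595 at entry into stationary phase, with values capped at 1. This normalised growth is the fitness value. The Bliss score is the difference between observed and product-expected fitness, with single-drug fitness inferred from the combination data and quartiles taken over technical, biological and donor/recipient replicates.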

S. pneumoniae D39V = assay: as above
Summary of the method: as §2

S. aureus DSM 20231 [4] = assay: as above
Summary of the method: as §2

S. aureus Newman = assay: as above
Summary of the method: as §2
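Wherever Bliss interaction score (quartile over a dose matrix) is given: first quartile when negative (synergy) and third quartile when positive (antagonism).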

COc1cc(Cc2cnc(N)nc2N)cc(OC)c1OC [Trimethoprim] + CC1=C\[C@@H](O)CC(=O)Cc2nc(co2)C(=O)N2CCC=C2C(=O)O[C@H](C(C)C)[C@H](C)/C=C/C(=O)NC\C=C\1 [Virginiamycin M1]
fitness, one replicate
Details | partner 0.0625 µg/mL | partner 0.125 µg/mL | partner 0.25 µg/mL | partner 0.5 µg/mL | partner 1 µg/mL
B. subtilis 168 [1], first compound 0.1 µg/mL | 0.85 | 0.855 | 0.991 | – | –
B. subtilis 168 [1], first compound 0.125 µg/mL | 0.738 | 0.722 | 0.71 | – | –
B. subtilis 168 [1], first compound 0.2 µg/mL | 0.755 | 0.808 | 0.865 | – | –
B. subtilis 168 [1], first compound 0.4 µg/mL | 0.57 | 0.483 | 0.576 | – | –
B. subtilis 168 [1], first compound 1 µg/mL | 0.509 | 0.267 | 0.282 | – | –
B. subtilis 168 [1], first compound 2 µg/mL | 0.408 | 0.285 | 0.377 | – | –
S. aureus DSM 20231 [2], first compound 0.125 µg/mL | 0.597 | 0.715 | – | 0.7 | 0.541
S. aureus DSM 20231 [2], first compound 0.25 µg/mL | – | – | – | 0.573 | 0.626
S. aureus DSM 20231 [2], first compound 0.5 µg/mL | – | – | – | 0.155 | 0.204

fitness
Details | first compound 0.125 µg/mL | first compound 0.25 µg/mL | first compound 0.5 µg/mL | first compound 1 µg/mL
B. subtilis 168 [1], partner 0.0625 µg/mL | – | – | 0.585 | –
B. subtilis 168 [1], partner 0.125 µg/mL | – | 0.704 | 0.471 | –
B. subtilis 168 [1], partner 0.25 µg/mL | – | – | 0.557 | –
S. aureus DSM 20231 [2], partner 0.0625 µg/mL | – | 0.576 | 0.0684 | 0.0383
S. aureus DSM 20231 [2], partner 0.125 µg/mL | – | 0.584 | 0.0768 | 0.0445
S. aureus DSM 20231 [2], partner 0.25 µg/mL | 0.682 | 0.618 | 0.119 | 0.0595

Details | Bliss interaction score
B. subtilis 168 [3] | 0.0852
S. aureus DSM 20231 [4] | -0.0966
S. aureus Newman | 0.0354
S. pneumoniae D39V | 0.0652

COc1cc(Cc2cnc(N)nc2N)cc(OC)c1OC [Trimethoprim] + CN[C@H](CC(C)C)C(=O)N[C@H]1C(=O)N[C@@H](CC(N)=O)C(=O)N[C@H]2C(=O)N[C@H]3C(=O)N[C@H](C(=O)N[C@H](C(=O)O)c4cc(O)cc(O)c4-c4cc3ccc4O)[C@H](O)c3ccc(c(Cl)c3)Oc3cc2cc(c3O[C@@H]2O[C@H](CO)[C@@H](O)[C@H](O)[C@H]2O[C@H]2C[C@](C)(N)[C@H](O)[C@H](C)O2)Oc2ccc(cc2Cl)[C@H]1O [Vancomycin]
S. aureus DSM 20231 [2], first compound 0.125 µg/mL, one replicate
Details | fitness
partner 0.1875 µg/mL | 0.667
partner 0.375 µg/mL | 0.898
partner 0.75 µg/mL | 0.984

fitness, S. aureus DSM 20231 [2]
Details | first compound 0.25 µg/mL | first compound 0.5 µg/mL | first compound 1 µg/mL
partner 0.1875 µg/mL | 0.604 | 0.0644 | 0.0331
partner 0.375 µg/mL | 0.613 | – | 0.0412
partner 0.75 µg/mL | 0.62 | – | 0.0581

Details | Bliss interaction score
B. subtilis 168 [3] | 0.0634
S. aureus DSM 20231 [4] | -0.0623
S. aureus Newman | -0.0768
S. pneumoniae D39V | 0.119
